Measured values taken from a melting point compilation (Tetko et al.; mined from patent text by program, amines drawn as free bases though some values may be those of a salt).

Row | melting point | SMILES
1 | 104 °C | O=C(Cc1ccccc1)Nc1ccccc1C(F)(F)F
2 | 198 to 199 °C | CC(C)(C)c1ccc(-c2c(Cl)c(CN3C(=O)CCC3=O)nc3sc4c(c23)CCN(Cc2ccccc2)C4)cc1
3 | 113 °C | CC(C)(C)c1cc2c(c(C(C)(C)C)c1O)CCO2
4 | 254 to 256 °C | CC(=O)NCC=Cc1ccc2ncnc(Nc3ccc(Oc4ccc(C)nc4)c(Cl)c3)c2c1
5 | 259 to 261 °C | CC(=O)Nc1nc2c(Oc3cc(-c4ccc(C(F)(F)F)cc4NC(C)=O)ncn3)cccc2s1
6 | 200 °C | COc1ccccc1N1CCN(CCn2cnc3c(c2=O)CN(Cc2ccccc2)CC3)CC1
7 | 127 to 130 °C | Nc1nc(NCC(c2ccccc2)c2ccc(F)cc2)c2ncn(C3OC(CO)C(O)C3O)c2n1 (stereo not given)
8 | 67.5 to 68 °C | COCCOc1ccc(C=O)c(OCc2ccccc2)c1
9 | 72 to 75 °C | CC(C)c1cc(Br)c(C(C)C)cc1S
10 | 172 °C | C#CCCC(O)=C(C#N)C(=O)Nc1ccc(C(F)(F)F)cc1
11 | 105 to 107 °C | COC(=O)c1cccn1Cc1ccccc1[N+](=O)[O-]
12 | > 300 °C | COc1ccc2nc3n(c(=O)c2c1OC)CS(=O)(=O)N3
13 | 217 °C | O=C(O)Cn1c(=O)n(Cc2ccc(Br)cc2F)c(=O)c2ccc(Br)cc21
14 | 106 to 108 °C | O=Cc1ccc(OC2CCN(C(=O)OCC3c4ccccc4-c4ccccc43)CC2)cc1
15 | 194 to 196 °C | N#CC(C#N)=C1CC=CO1
16 | 83 to 85 °C | Oc1ccc(Br)c2c1CCCC2
17 | 180 to 184 °C | CC1(C(F)(F)F)NC(c2ncccc2C(=O)O)=NC1=O (stereo not given)
18 | 73.5 to 74.5 °C | CC(C)COC[C@H](CC(C)C)NC(=O)[C@H]1O[C@@H]1C(=O)OC(C)(C)C
19 | 66 to 68 °C | COC(=O)CSSc1cc(Oc2ccc(C(F)(F)F)cc2Cl)ccc1[N+](=O)[O-]

Row | melting point | SMILES
20 | 192 to 194 °C | CC(C)(C#N)Cc1ccc(CC(C)(C)C#N)cc1
21 | 74 to 75 °C | CC(C)c1cnn2c(NCc3ccccc3)nc(Cl)cc12
22 | 155 °C | O=C(c1ccc(-c2cc(-c3c[nH]nc3-c3ccccn3)ccn2)cc1)N1CCOCC1
23 | 50 to 52 °C | CC1(OCc2ccccc2F)COC(C(C)(C)C)OC1 (stereo not given)
24 | 259 to 260 °C | CNC(=O)c1c(NC(=O)CCl)c(OC)c(C(=O)NC)c([N+](=O)[O-])c1OC
25 | 130 to 131 °C | CN(CCO)Cc1ccc2c(c1)c(=O)c(C(=O)NCc1ccc(Cl)cc1)cn2C
26 | 134 to 136 °C | O=C(Cn1ccnc1)c1ccc(CCc2ccccc2)cc1
27 | 262 to 264 °C | NC(=O)c1cc(-c2ccc3nnn(Cc4ccc5ncccc5c4)c3n2)ccc1F
28 | 163 to 165 °C | Fc1ccc2c(C3CCN(CCc4ccccc4)CC3)n[nH]c2c1
29 | 158 to 160 °C | CC(C)C1COCc2nc3c(N)nc4c(c3n21)CCCC4 (stereo not given)
30 | 204 to 206 °C | CC(C)c1nc2c(nc1C(C)C)-c1c(c(-c3ccc(C(=O)O)cc3)nn1Cc1cccnc1)CC2
31 | 184 to 186 °C | CCOC(=O)NNC(=O)Cc1c(C)cc(C)cc1C
32 | 131 to 133 °C | O=C(/C=C/C=C/c1ccccc1[N+](=O)[O-])NCCCCCC(=O)NO
33 | 168 to 172 °C | COc1cc(C)nc(NC(=O)NS(=O)(=O)c2cccc3c2C(Cl)=CC3)n1
34 | 222 to 224 °C | CC(=O)c1c(C)c(C)c(C(C)=O)c2c1C(=O)c1ccccc1C2=O
35 | 175 to 177 °C | N#Cc1cnn2c1NCC=C2c1cccc(C(F)(F)F)c1
36 | 156 to 157 °C | CCc1cccc(Nc2ncnc3cc(OCc4ccccc4)c(OCCOC)cc23)c1
37 | 197 to 198 °C | CS(=O)(=O)Nc1ccc(C(=O)CN2CCN(c3cccnc3)CC2)cc1

Row | SMILES | melting point
38 | O=C(CCl)c1cc(Br)ccc1O | 79 °C
39 | CN(C)C1(c2ccccc2)CCC2(OCCc3c2[nH]c2ccc(F)cc32)C(Cc2cccc(F)c2)C1 (stereo not given) | 133 to 135 °C
40 | Nc1c2c(nc3ccccc13)C1C=CC2C1 (stereo not given) | 123 °C
